Source: patent US20080188659A1, “Method for Preparing Halogenated Amines” (Wyeth, priority 2007, published 2008)
Read-outs that look alike come from different tables or passages of the source.

Columns and labels:
mouse 11b-HSD1 = target: T1, mouse 11b-HSD1 (Mus musculus, UniProt P50172); assay: cell-based assay, stable CHO cell line expressing mouse 11b-HSD1, cortisol measured with DiscoverX HitHunter Cortisol Assay; settings: CHO cells expressing mouse 11b-HSD1, 500 nM cortisone, 120 minutes
T1 construct: expressed in transfected cells
T1 sequence (P50172 whole entry): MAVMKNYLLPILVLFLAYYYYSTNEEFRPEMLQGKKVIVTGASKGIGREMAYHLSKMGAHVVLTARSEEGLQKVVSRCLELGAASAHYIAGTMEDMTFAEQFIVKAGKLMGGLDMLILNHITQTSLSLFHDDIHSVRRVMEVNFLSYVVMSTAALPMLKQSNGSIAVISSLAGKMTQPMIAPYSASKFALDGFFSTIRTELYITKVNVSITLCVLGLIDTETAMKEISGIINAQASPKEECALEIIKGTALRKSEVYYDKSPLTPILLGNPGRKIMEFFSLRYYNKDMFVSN
Description: To determine the potency of compounds against mouse 11b-HSD1, a stable CHO cell line expressing mouse 11b-HSD1 is used. Cells are plated at 20,000 cells/well in 96 well plates and incubated overnight (12-16 hrs) at 37° C./5% CO2. […] 10 ul of 5 micromolar cortisone (final concentration 500 nM) is then added to the cells and the plate is incubated at 37° C./5% CO2 for 120 minutes. 15 microliter of media is withdrawn and amount of cortisol in the media is measured using the DiscoverX HitHunter Cortisol Assay (DiscoverX corp, CA).

human 11b-HSD1 = target: T2, human 11b-HSD1 (Homo sapiens, UniProt P28845); assay: cell-based assay, stable CHO cell line expressing human 11b-HSD1, cortisol measured with DiscoverX HitHunter Cortisol Assay; settings: CHO cells expressing human 11b-HSD1; serum-free media; 500 nM cortisone, 120 minutes; read-out: Human 1C50
T2 construct: expressed in transfected cells
T2 sequence (P28845 whole entry): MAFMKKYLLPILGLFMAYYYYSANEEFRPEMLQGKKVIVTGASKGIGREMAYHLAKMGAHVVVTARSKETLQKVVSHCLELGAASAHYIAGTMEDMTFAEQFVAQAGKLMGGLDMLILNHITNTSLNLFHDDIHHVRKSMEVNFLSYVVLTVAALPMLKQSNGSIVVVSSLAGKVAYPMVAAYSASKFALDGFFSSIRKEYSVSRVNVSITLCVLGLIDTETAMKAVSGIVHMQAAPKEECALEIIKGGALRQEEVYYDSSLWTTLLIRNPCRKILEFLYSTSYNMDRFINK
Description: Compounds described herein can be tested in a cell-based assay using a stable CHO cell line expressing human 11b-HSD1. Cells are plated at 20,000 cells/well in 96 well plates and incubated overnight (12-16 hrs) at 37° C./5% CO2. Cells are treated with different concentration of compound in 90 microliter serum-free media and incubated for 30 minutes at 37° C./5% CO2. 10 ul of 5 micromolar cortisone (final concentration 500 nM) is then added to the cells and the plate is incubated at 37° C./5% CO2 for 120 minutes. 15 microliter of media is withdrawn and amount of cortisol in the media is measured using the DiscoverX HitHunter Cortisol Assay (DiscoverX corp, CA).

[1] = media containing 10% delipidized human serum, read-out: Mouse + Serum 1C50
[2] = serum-free media, read-out: Mouse 1C50

Work on NC(c1cccc(C(=O)N2CCCCC2)c1)(C(F)(F)F)C(F)(F)F [Example 7, [3-(1-Amino-2,2,2-trifluoro-1-trifluoromethyl-ethyl)-phenyl]-piperidin-1-yl-methanone] yielded an IC50 (mouse 11b-HSD1; [1]) of 2690 nM, an IC50 (mouse 11b-HSD1; [2]) of over 10000 nM and an IC50 (human 11b-HSD1) of 2380 nM.

Compound C[C@@H]1CN(c2ccc(C(N)(C(F)(F)F)C(F)(F)F)cc2C(F)(F)F)CCN1S(=O)(=O)c1cccc(C(C)(O)C(F)(F)F)c1 (stereo partly drawn) [Example 15, 2-(3-{[(2R)-4-{4-[1-amino-2,2,2-trifluoro-1-(trifluoromethyl)ethyl]-2-(trifluoromethyl)phenyl}-2-methylpiperazin-1-yl]sulfonyl}phenyl)-1,1,1-trifluoropropan-2-ol] has an IC50 (mouse 11b-HSD1; [2]) of 200 nM and an IC50 (human 11b-HSD1) of 80 nM.

COc1ccc(N(C(=O)OC(C)(C)C)S(=O)(=O)c2cccc(C(N)(C(F)(F)F)C(F)(F)F)c2)cc1 [Example 8, 3-(1-Amino-2,2,2-trifluoro-1-trifluoromethyl-ethyl)-N-(tert-butoxycarbonyl)-N-(4-methoxy-phenyl)-benzenesulfonamide] was tested, and the IC50 (mouse 11b-HSD1; [1]) was over 10000 nM, the IC50 (mouse 11b-HSD1; [2]) was over 10000 nM and the IC50 (human 11b-HSD1) was over 10000 nM.

Compound CCN(CC)C(=O)c1cccc(C(N)(C(F)(F)F)C(F)(F)F)c1 [Example 11, 3-(1-Amino-2,2,2-trifluoro-1-trifluoromethyl-ethyl)-N,N-diethyl-benzamide] has an IC50 (mouse 11b-HSD1; [1]) of 291 nM.

CCN(CC)S(=O)(=O)c1cccc(C(N)(C(F)(F)F)C(F)(F)F)c1 [Example 4, 3-(1-Amino-2,2,2-trifluoro-1-trifluoromethyl-ethyl)-N,N-diethyl-benzenesulfonamide] showed an IC50 (mouse 11b-HSD1; [1]) of over 10000 nM, an IC50 (mouse 11b-HSD1; [2]) of over 10000 nM and an IC50 (human 11b-HSD1) of over 10000 nM.

Compound C[C@@H]1CN(c2ccc(C(N)(C(F)(F)F)C(F)(F)F)nc2)CCN1S(=O)(=O)c1cccc(C(C)(O)C(F)(F)F)c1 (stereo partly drawn) [Example 14, 2-(3-{[(2R)-4-{6-[1-amino-2,2,2-trifluoro-1-(trifluoromethyl)ethyl]pyridin-3-yl}-2-methylpiperazin-1-yl]sulfonyl}phenyl)-1,1,1-trifluoropropan-2-ol] has an IC50 (mouse 11b-HSD1; [2]) of 160 nM and an IC50 (human 11b-HSD1) of under 10 nM.

With NC(c1ccc(C(=O)N2CCCCC2)cc1)(C(F)(F)F)C(F)(F)F [Example 9, [4-(1-Amino-2,2,2-trifluoro-1-trifluoromethyl-ethyl)-phenyl]-piperidin-1-yl-methanone] the IC50 (mouse 11b-HSD1; [1]) was 8380 nM, the IC50 (mouse 11b-HSD1; [2]) was over 10000 nM and the IC50 (human 11b-HSD1) was over 10000 nM.

CCN(CC)C(=O)c1ccc(C(N)(C(F)(F)F)C(F)(F)F)cc1 [Example 12, 4-(1-Amino-2,2,2-trifluoro-1-trifluoromethyl-ethyl)-N,N-diethyl-benzamide] gave an IC50 (mouse 11b-HSD1; [1]) of 165 nM.

CC(C)(C)OC(=O)N(C1CCCCC1)S(=O)(=O)c1cccc(C(N)(C(F)(F)F)C(F)(F)F)c1 [Example 5, 3-(1-Amino-2,2,2-trifluoro-1-trifluoromethyl-ethyl)-N-(tert-butoxycarbonyl)-N-cyclohexyl-benzenesulfonamide] was tested, and the IC50 (mouse 11b-HSD1; [1]) was over 10000 nM, the IC50 (mouse 11b-HSD1; [2]) was over 10000 nM and the IC50 (human 11b-HSD1) was over 10000 nM.

For COc1ccc(N(C(=O)OC(C)(C)C)S(=O)(=O)c2ccc(C(N)(C(F)(F)F)C(F)(F)F)cc2)cc1 [Example 10, 4-(1-Amino-2,2,2-trifluoro-1-trifluoromethyl-ethyl)-N-(tert-butoxycarbonyl)-N-(4-methoxy-phenyl)-benzenesulfonamide], the IC50 (mouse 11b-HSD1; [1]) was over 10000 nM, the IC50 (mouse 11b-HSD1; [2]) was over 10000 nM and the IC50 (human 11b-HSD1) was over 10000 nM.

For NC(c1ccc(S(=O)(=O)N2CCCCC2)cc1)(C(F)(F)F)C(F)(F)F [Example 2, 2,2,2-Trifluoro-1-[4-(piperidine-1-sulfonyl)-phenyl]-1-trifluoromethyl-ethylamine], the IC50 (mouse 11b-HSD1; [1]) was 731 nM, the IC50 (mouse 11b-HSD1; [2]) was 613 nM and the IC50 (human 11b-HSD1) was 428 nM.

C[C@@H]1CN(c2ccc(C(N)(C(F)(F)F)C(F)(F)F)cc2C(F)(F)F)CCN1S(=O)(=O)c1ccc(C(C)(O)C(F)(F)F)cc1 (stereo partly drawn) [Example 16, 2-{4-([(2R)-4-[4-[1-amino-2,2,2-trifluoro-1-(trifluoromethyl)ethyl]-2-(trifluoromethyl)phenyl]-2-methylpiperazin-1-yl}sulfonyl)phenyl]-1,1,1-trifluoropropan-2-ol] was tested, and the IC50 (mouse 11b-HSD1; [2]) was under 100 nM and the IC50 (human 11b-HSD1) was 90 nM.

For CCN(CC)S(=O)(=O)c1ccc(C(N)(C(F)(F)F)C(F)(F)F)cc1 [Example 13, 4-(1-Amino-2,2,2-trifluoro-1-trifluoromethyl-ethyl)-N,N-diethyl-benzenesulfonamide], the IC50 (mouse 11b-HSD1; [1]) was 645 nM, the IC50 (mouse 11b-HSD1; [2]) was 225 nM and the IC50 (human 11b-HSD1) was 565 nM.

In the case of CC(C)(C)OC(=O)N(Cc1ccccc1)S(=O)(=O)c1cccc(C(N)(C(F)(F)F)C(F)(F)F)c1 [Example 6, 3-(1-Amino-2,2,2-trifluoro-1-trifluoromethyl-ethyl)-N-benzyl-N-(tert-butoxycarbonyl)-benzenesulfonamide], the IC50 (mouse 11b-HSD1; [1]) is reported as over 10000 nM, the IC50 (mouse 11b-HSD1; [2]) is reported as over 10000 nM and the IC50 (human 11b-HSD1) is reported as over 10000 nM.

NC(c1cccc(S(=O)(=O)N2CCCCC2)c1)(C(F)(F)F)C(F)(F)F [Example 1, 2,2,2-Trifluoro-1-[3-(piperidine-1-sulfonyl)-phenyl]-1-trifluoromethyl-ethylamine] was tested, and the IC50 (mouse 11b-HSD1; [1]) was 3320 nM, the IC50 (mouse 11b-HSD1; [2]) was over 10000 nM and the IC50 (human 11b-HSD1) was over 10000 nM.

Work on NC(c1cccc(S(=O)(=O)N2CCCC2)c1)(C(F)(F)F)C(F)(F)F [Example 3, 2,2,2-Trifluoro-1-[3-(pyrrolidine-1-sulfonyl)-phenyl]-1-trifluoromethyl-ethylamine] yielded an IC50 (mouse 11b-HSD1; [1]) of over 10000 nM, an IC50 (mouse 11b-HSD1; [2]) of over 10000 nM and an IC50 (human 11b-HSD1) of over 10000 nM.
